Values of other authors in patent publication US20220016116A1, “DETERMINING DRUG COMBINATIONS, SYNERGISTIC DRUG COMBINATION AND USE THEREOF IN PANCREATIC CANCER TREATMENT” (Innoplexus AG, priority 2020, published 2022).

Legend:
[1] = target: human epidermal growth factor receptor (EGFR) family (EGFR/HER1, HER2, and HER4) tyrosine kinases; conditions: read-out: IC50 (affinity)
[2] = independent of drug concentrations from 250 ng/mL to 1000 ng/mL
[3] = system: PDAC cell
[4] = 45 mg orally once daily, CV 35%

- Cmax, geometric mean [4]: 108 ng/mL
- area under the concentration-time curve (AUC) [4]: 2213 ng·h/mL
- volume of distribution (CV 18%): 1889 L
- mean absolute bioavailability (after oral administration): 80%
- time to reach maximum concentration (oral): approximately 6.0 h
- IC50 [1]: 6 nM
- bound to plasma proteins [2]: 98%
SMILES: COc1cc2ncnc(Nc3ccc(F)c(Cl)c3)c2cc1NC(=O)/C=C/CN1CCCCC1 [Dacomitinib, (2E)-N-16-4-(piperidin-1-yl) but-2-enamide]
- cell migration and invasion ([3]; through inhibition of EMT markers ZEB1, Snail and N-cadherin): attenuated cell migration and invasion
- PDAC cell proliferation ([3]; via inhibition of FOXM1 and its targets Aurora kinase B and cyclin B1): diminishes PDAC cell proliferation
- apoptosis and radio-sensitivity ([3]; via inhibition of anti-apoptotic proteins survivin and MCL1): induces apoptosis and potentiated radio-sensitivity
